# Assay results taken from publication PMC6713262 (Cell, 2019).
# Where two headings read alike, the source gives them in different places.
# Target: crystallized CB2 construct (CB2-T4L) (Homo sapiens, UniProt P34972, D228Y/G225M/G233N/G304E/G78L/H226L/INS221[…]/INS227[…]/INS235[…]/M234R/R229N/R242E/S224R/T127A/T153L/V231T)
# Assay: Radioligand competition binding with [3H]-CP55,940, crystallized CB2 construct
Molecule,"Effect of construct modifications on binding affinity of CB2 (T4L fusion, five mutations, N/C-terminal truncation, Figure S1F)",Effect of construct modifications on binding affinity of CB2
"Cc1c(C(=O)NC23CC4CC(CC(C4)C2)C3)nn(CCCCCO)c1-c1ccccc1 [AM10257, 1-(5-Hydroxypentyl)-4-methyl-5-phenyl-N-tricyclo[3.3.1.1^3,7]dec-1-yl-1H-pyrazole-3-carboxamide]",little effect,–
SR144528 [reference compound],–,little effect
